# Experimental data as given in article PMC8781629, “Identification of an Amylomaltase from the Halophilic Archaeon Haloquadratum walsbyi by Functional Metagenomics: Structural and Functional Insights” (Life, 2022).
# Target: T1, Hw-A (H. walsbyi amylomaltase) (Haloquadratum walsbyi, UniProt Q18H55)
# T1 construct: gene malQ; full length plus 21 vector residues incl; N-terminal His6 tag (p15TV-L), E. coli Origami (DE3), about 67 kDa, tag not reported cut
# Experiment: starch transglycosylation, decrease of starch-iodine absorbance at […] nm
# Format: biochemical
# Conditions: acceptor substrate (best of those tested), 0.05%; donor 0.15% starch; 50 mM sodium phosphate pH 7, 1 M NaCl, 40 °C, 1 h
# T1 sequence (Q18H55 entry or part of it): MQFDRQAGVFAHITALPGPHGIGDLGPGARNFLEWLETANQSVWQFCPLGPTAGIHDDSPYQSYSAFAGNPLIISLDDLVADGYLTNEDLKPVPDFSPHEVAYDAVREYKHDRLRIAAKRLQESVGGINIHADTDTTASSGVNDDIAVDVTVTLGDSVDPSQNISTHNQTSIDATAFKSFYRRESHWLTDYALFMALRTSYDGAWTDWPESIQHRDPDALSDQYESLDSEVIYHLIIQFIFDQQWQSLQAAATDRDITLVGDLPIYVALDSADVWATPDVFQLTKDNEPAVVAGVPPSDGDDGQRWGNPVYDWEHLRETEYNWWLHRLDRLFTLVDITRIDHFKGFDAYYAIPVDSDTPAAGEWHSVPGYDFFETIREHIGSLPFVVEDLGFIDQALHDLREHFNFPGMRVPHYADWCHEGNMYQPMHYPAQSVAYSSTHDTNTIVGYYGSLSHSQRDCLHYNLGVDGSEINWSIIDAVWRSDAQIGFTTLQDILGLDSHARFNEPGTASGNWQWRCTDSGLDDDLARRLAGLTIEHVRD
smiles,measurement,value
OC[C@H]1O[C@H](O[C@H]2[C@H](O)[C@@H](O)[C@@H](O[C@H]3[C@H](O)[C@@H](O)C(O)O[C@@H]3CO)O[C@@H]2CO)[C@H](O)[C@@H](O)[C@@H]1O (stereo partly shown) [maltotriose],"starch transglycosylation, decrease of starch-iodine absorbance at 620 nm",The assays indicated maltotriose as the best acceptor for starch degradation
